Source: article PMC4689772, “The Effect of Excipients on the Permeability of BCS Class III Compounds and Implications for Biowaivers” (Pharmaceutical Research, 2015)

Experiments:
[1] = Bidirectional permeability across Caco-2 cell monolayers (no excipients); details: human; for recovery: Caco-2, no excipients, cassette, mean ± SD, n = 3
in vitro = details: Caco-2
Description: Samples were collected from the donor and receiver chambers at multiple time points and analyzed by LC-MS/MS.
Bidirectional permeability was measured in the absence of excipients only (n = 3 replicates), whereas unidirectional permeability was measured both in the presence and absence of excipients (n = 4 replicates).

in vivo = details: Sprague-Dawley, rat, pH 6.8, Effective permeability coefficient (Peff), rat jejunum, mean ± SEM, n = 4
Description: (§1) Sprague–Dawley rats (300–350 g) were used to perform closed-loop, in situ intestinal perfusion. Rats were fasted for 12–18 h before the experiment, and water was supplied ad libitum.
(§2) Four rats (n = 4) were used per treatment group, with a total of 17 groups: one control group (assay buffer, no excipients) and three or four treatment groups for each of the five excipients, with a different concentration for each group.
(§3) Rats were anesthetized with an intraperitoneal injection of ketamine/xylazine (1 ml/kg) and placed on a heating pad to maintain normal body temperature. After making a midline incision, the intestines were externalized. A 10-cm segment of the jejunum was tied off, cannulated at both ends to form a loop, and flushed with saline and air. The loop was equilibrated statically with dosing solution for 30 min, then flushed with air and perfused by recirculation (peristaltic pump) with 10 ml dosing solution at 0.2 ml/min. Samples of the perfusate were taken from the reservoir at 15, 30, 45, 60, 75, and 90 min for analysis by LC-MS/MS.

[2] = Unidirectional (A→B) permeability across Caco-2 cell monolayers in presence and absence of excipients; details: human, Caco-2, Apparent permeability coefficient (Papp), mean ± SEM, n = 4
[3] = Recirculating in situ rat intestinal perfusion (jejunum) in presence and absence of excipients; details: Sprague-Dawley, pH 6.8, Effective permeability coefficient (Peff), mean ± SEM, n = 4
Description: as §1, §2, §3

In the case of Nc1nc2c(ncn2COCCO)c(=O)[nH]1 [Acyclovir, acyclovir], the recovery ([1]; Caco-2, A→B Recovery) is reported as 82.2 ± 8.6%, the recovery ([1]; Caco-2, B→A Recovery) is reported as 94.9 ± 12.2% and the Papp A→B (in vitro) is reported as 29.8 ± 1.8 ×10⁻⁶ cm/s.

In the case of Cc1cc(=O)n(-c2ccccc2)n1C [Antipyrine, antipyrine], the Papp at 90 min (in vivo; Control (no excipient)) is reported as 143 ± 17 ×10⁻⁶ cm/s, the Papp at 90 min (in vivo; HPMC 0.06 mg/ml) is reported as 168 ± 35 ×10⁻⁶ cm/s and the Papp at 90 min (in vivo; PEG 400 0.06 mg/ml) is reported as 117 ± 22 ×10⁻⁶ cm/s. The Papp at 90 min (in vivo; PEG 400 0.30 mg/ml (first run)) was 82 ± 15 ×10⁻⁶ cm/s, the Papp at 90 min (in vivo; PEG 400 0.30 mg/ml, second run) was 153 ± 18 ×10⁻⁶ cm/s and the Papp at 90 min (in vivo; PEG 400 […]) was 90 ± 26 ×10⁻⁶ cm/s. The Papp at 90 min (in vivo; Povidone 0.06 mg/ml) was 133 ± 42 ×10⁻⁶ cm/s, the Papp at 90 min (in vivo; SLS 0.01 mg/ml) was 175 ± 23 ×10⁻⁶ cm/s and the Papp at 90 min (in vivo; SLS 0.02 mg/ml) was 93 ± 26 ×10⁻⁶ cm/s. For the same compound, the Papp at 90 min (in vivo; SLS 0.04 mg/ml) was 108 ± 18 ×10⁻⁶ cm/s and the Papp at 90 min (in vivo; SLS […]) was 157 ± 46 ×10⁻⁶ cm/s.

CC(C)(C)NCC(O)COc1cccc2c1CC(O)C(O)C2 (stereo not shown) [Nadolol, nadolol] showed a Papp A→B ([1]; Caco-2) of 0.29 ± 0.16 ×10⁻⁶ cm/s, a Papp B→A ([1]; Caco-2) of 0.71 ± 0.15 ×10⁻⁶ cm/s and a recovery ([1]; Caco-2, A→B Recovery) of 83.9 ± 9.1%. For the same compound, the recovery ([1]; Caco-2, B→A Recovery) was 90.7 ± 12.2%, the Papp A→B ([2]; Control a (no excipient)) was 0.21 ± 0.06 ×10⁻⁶ cm/s and the Papp A→B ([2]; Control b (no excipient)) was 0.21 ± 0.04 ×10⁻⁶ cm/s. The Papp A→B ([2]; D-Lactose 1.0 mg/ml (control set b)) was 0.14 ± 0.05 ×10⁻⁶ cm/s, the Papp A→B ([2]; D-Lactose 2.0 mg/ml (control set b)) was 0.13 ± 0.01 ×10⁻⁶ cm/s and the Papp A→B ([2]; HPMC 0.06 mg/ml (control set a)) was 0.14 ± 0.05 ×10⁻⁶ cm/s. For the same compound, the Papp A→B ([2]; HPMC 1.0 mg/ml (control set b)) was 0.13 ± 0.05 ×10⁻⁶ cm/s, the Papp A→B ([2]; HPMC 2.0 mg/ml (control set b)) was 0.11 ± 0.02 ×10⁻⁶ cm/s and the Papp A→B ([2]; PEG 400 0.06 mg/ml (control set a)) was 0.13 ± 0.01 ×10⁻⁶ cm/s. For the same compound, the Papp A→B ([2]; PEG 400 […] (control set a)) was 0.14 ± 0.04 ×10⁻⁶ cm/s, the Papp A→B ([2]; PEG 400 […] (control set b)) was 0.27 ± 0.04 ×10⁻⁶ cm/s and the Papp A→B ([2]; Povidone 0.06 mg/ml (control set a)) was 0.09 ± 0.02 ×10⁻⁶ cm/s. The Papp A→B ([2]; Povidone 0.2 mg/ml (control set b)) was 0.15 ± 0.05 ×10⁻⁶ cm/s, the Papp A→B ([2]; SLS 0.01 mg/ml (control set a)) was 0.23 ± 0.07 ×10⁻⁶ cm/s and the Papp A→B ([2]; SLS 0.02 mg/ml (control set a)) was 0.31 ± 0.05 ×10⁻⁶ cm/s. It also gave a Papp A→B ([2]; SLS 0.04 mg/ml (control set a)) of 0.31 ± 0.1 ×10⁻⁶ cm/s, a Papp A→B (in vitro) of 33 ± 0.7 ×10⁻⁶ cm/s and a Papp at 90 min ([3]; other: closed-loop recirculating in situ jejunal perfusion, HPMC 0.06 mg/ml) of 40 ± 7 ×10⁻⁶ cm/s. The Papp at 90 min ([3]; other: closed-loop recirculating in situ jejunal perfusion, HPMC […]) was 7 ± 17 ×10⁻⁶ cm/s, the Papp at 90 min ([3]; other: closed-loop recirculating in situ jejunal perfusion, PEG 400 0.06 mg/ml) was 24 ± 8 ×10⁻⁶ cm/s and the Papp at 90 min ([3]; other: closed-loop recirculating in situ jejunal perfusion, PEG 400 0.30 mg/ml (first run)) was 1 ± 1 ×10⁻⁶ cm/s. The Papp at 90 min ([3]; other: closed-loop recirculating in situ jejunal perfusion, PEG 400 […]) was 25 ± 8 ×10⁻⁶ cm/s, the Papp at 90 min ([3]; other: closed-loop recirculating in situ jejunal perfusion, SLS 0.01 mg/ml) was 32 ± 15 ×10⁻⁶ cm/s and the Papp at 90 min ([3]; other: closed-loop recirculating in situ jejunal perfusion, SLS 0.02 mg/ml) was 37 ± 10 ×10⁻⁶ cm/s. It also gave a Papp at 90 min ([3]; other: closed-loop recirculating in situ jejunal perfusion, SLS 0.04 mg/ml) of 1 ± 2 ×10⁻⁶ cm/s and a Papp at 90 min ([3]; Povidone […]) of 13 ± 1.5 ×10⁻⁶ cm/s.
